The structures appear in SMILES notation.

This assay addresses T1, Recombinant M-MuLV reverse transcriptase (Moloney murine leukemia virus, UniProt P03355).
T1 construct: Recombinant M-MuLV reverse transcriptase was purchased from New England Biolabs, USA; purchased New England Biolabs
Put plainly: Inhibition of M-MuLV reverse transcriptase activity ((3H)dTTP incorporation). The assay is classed as biochemical. On the procedure:
The enhanced antiviral effect of the pharmaceutical composition of the invention was investigated by testing the inhibitory effect thereof on reverse transcriptase activity of Moloney murine virus(M-MuLV). Recombinant M-MuLV reverse transcriptase was purchased from New England Biolabs, USA. Measurement of the activity was carried out by investigating the poli(rA)noligo(dT)12-18 template-primer directed incorporation of (^3H)dTTP(Amersham) into the cDNS.
In each case, the final volume of the reaction mixture was 20 microliters. The composition of the reaction mixture was as follows:
2 microliters of 10× reverse transcriptase buffer,
20 microgram/ml template primer,
the test compound (dissolved in 1× reverse transcriptase buffer solution).
The composition of the 10× reverse transcriptase buffer (1 liter of solution contains the following substances):
500 mM tris-hydrochloride/tris (hydroxy-methyl)-amino-methan-hydrochloride/(pH=8,3),
300 mM potassium-chloride, and
100 mM DTT (dithiotreitol).
The test materials were AZT and compound “L” added separately or together. The reaction was initiated by adding 5U reverse transcriptase. The reaction mixture was incubated for 40 min at 37° C. Then, 15 microliters of reaction mixture was transferred to Whatman DE81 filter-paper disc, washed by 5% by mass of aqueous disodium-hydrogen-phosphate buffer, by water, and then with 96% by mass of ethanol. After drying, the discs were transferred into 5 ml of scintillation liquid (OptiPhase ‘HiSafe 3’, Wallac), and the radioactivity of samples was measured by a Packard Tri-Carb 2200 CE liquid scintillation counter. Enzymatic activity was calculated in percent from the experimental results.

Turning to `Cc1cn([C@H]2C[C@H](N=[N+]=[N-])[C@@H](CO)O2)c(=O)[nH]c1=O` [AZT, 3′-azido-3′-deoxythymidine], for the setting “0.1 microM/ml AZT, control = 100”, the activity at 0.1 µM came to 91%. Also, the activity at 0.2 µM (0.2 microM/ml AZT, control = 100) stood at 84%. For the same compound, the “inhibitory effect on M-MuLV reverse transcriptase (in words)” value (AZT by itself, in the concentrations applied) was “only minor inhibitory effect”.
With `Cl.Cl.NC(=NOCC(O)CN1CCCCC1)c1cccnc1` (stereo not drawn) [compound “L”, 0-(3-piperidino-2-hydroxy-1-propyl)nicotinic acid amid-oxime dihydrochloride], the “Activity (%)” value was determined as 75% (0.02 mg/ml compound “L”, control = 100) and 74% (0.03 mg/ml compound “L”, control = 100). Further, where the note is “compound “L” alone”, the inhibitory effect result is listed as “about 25%”.

Values taken from patent US6451851B1, “Pharmaceutical composition with antiviral activity containing an hydroxymic acid derivative and an antiviral agent” (N-Gene Research Laboratories Inc., priority 1997, dated 2002).
